Tests used:
Assay type in all cases: functional
[1] = system: HL-60(TB); test: Cytotoxicity against human HL-60(TB) cells assessed as cell growth at 10^-5 M after 48 hrs by SRB assay; conditions: HL-60, 48 h, read-out: Activity
[2] = system: CCRF-CEM; test: Cytotoxicity against human CCRF-CEM cells assessed as cell growth at 10^-5 M after 48 hrs by SRB assay; conditions: read-out: Activity
[3] = system: HCC 2998; test: Cytotoxicity against human HCC2998 cells assessed as cell growth at 10^-5 M after 48 hrs by SRB assay; conditions: HCC 2998, 48 h, read-out: Activity
[4] = system: NCI-H23; test: Cytotoxicity against human NCI-H23 cells assessed as cell growth at 10^-5 M after 48 hrs by SRB assay; conditions: NCI-H23, 48 h, read-out: Activity
[5] = system: HOP-92; test: Cytotoxicity against human HOP92 cells assessed as cell growth at 10^-5 M after 48 hrs by SRB assay; conditions: HOP-92, 48 h, read-out: Activity
[6] = system: RPMI-8226; test: Cytotoxicity against human RPMI8226 cells assessed as growth inhibition at 10 uM after 48 hrs by SRB assay; conditions: RPMI-8226, 48 h, read-out: GI
[7] = system: A498; test: Cytotoxicity against human A498 cells assessed as cell growth at 10^-5 M after 48 hrs by SRB assay; conditions: A498, 48 h, read-out: Activity
[8] = system: MCF7; test: Cytotoxicity against human MCF7 cells assessed as cell growth at 10^-5 M after 48 hrs by SRB assay; conditions: MCF7, 48 h, read-out: Activity
[9] = system: SR; test: Cytotoxicity against human SR cells assessed as cell growth at 10^-5 M after 48 hrs by SRB assay; conditions: read-out: Activity
[10] = system: NCI-H522; test: Cytotoxicity against human NCI-H522 cells assessed as cell growth at 10^-5 M after 48 hrs by SRB assay; conditions: NCI-H522, 48 h, read-out: Activity
[11] = system: IGROV-1; test: Cytotoxicity against human IGROV1 cells assessed as cell growth at 10^-5 M after 48 hrs by SRB assay; conditions: IGROV-1, 48 h, read-out: Activity
[12] = system: SF-539; test: Cytotoxicity against human SF539 cells assessed as cell growth at 10^-5 M after 48 hrs by SRB assay; conditions: SF-539, 48 h, read-out: Activity
[13] = system: M14; test: Cytotoxicity against human M14 cells assessed as cell growth at 10^-5 M after 48 hrs by SRB assay; conditions: M14, 48 h, read-out: Activity
[14] = system: T47D; test: Cytotoxicity against human T47D cells assessed as cell growth at 10^-5 M after 48 hrs by SRB assay; conditions: read-out: Activity
[15] = system: OVCAR-8; test: Cytotoxicity against human OVCAR8 cells assessed as cell growth at 10^-5 M after 48 hrs by SRB assay; conditions: OVCAR-8, 48 h, read-out: Activity
[16] = Cytotoxicity against human OVCAR5 cells assessed as cell growth at 10^-5 M after 48 hrs by SRB assay; conditions: OVCAR-5, 48 h, read-out: Activity
[17] = system: NCI-H460; test: Cytotoxicity against human NCI-H460 cells assessed as cell growth at 10^-5 M after 48 hrs by SRB assay; conditions: NCI-H460, 48 h, read-out: Activity
[18] = system: COLO 205; test: Cytotoxicity against human COLO205 cells assessed as cell growth at 10^-5 M after 48 hrs by SRB assay; conditions: COLO 205, 48 h, read-out: Activity
[19] = system: SK-MEL-5; test: Cytotoxicity against human SK-MEL-5 cells assessed as cell growth at 10^-5 M after 48 hrs by SRB assay; conditions: SK-MEL-5, 48 h, read-out: Activity
[20] = system: A549; test: Cytotoxicity against human A549 cells assessed as cell growth at 10^-5 M after 48 hrs by SRB assay; conditions: A549, 48 h, read-out: Activity
[21] = Cytotoxicity against human NCI-ADR-RES cells assessed as cell growth at 10^-5 M after 48 hrs by SRB assay; conditions: read-out: Activity
[22] = system: SF-295; test: Cytotoxicity against human SF295 cells assessed as cell growth at 10^-5 M after 48 hrs by SRB assay; conditions: SF-295, 48 h, read-out: Activity
[23] = system: OVCAR-3; test: Cytotoxicity against human OVCAR3 cells assessed as cell growth at 10^-5 M after 48 hrs by SRB assay; conditions: OVCAR-3, 48 h, read-out: Activity
[24] = system: HT-29; test: Cytotoxicity against human HT-29 cells assessed as cell growth at 10^-4 M after 48 hrs by SRB assay; conditions: HT-29, 48 h, read-out: Activity
[25] = system: CCRF-CEM; test: Cytotoxicity against human CCRF-CEM cells assessed as cell growth at 10^-8 M after 48 hrs by SRB assay; conditions: read-out: Activity
[26] = system: 786-0; test: Cytotoxicity against human 786-0 cells assessed as cell growth at 10^-4 M after 48 hrs by SRB assay; conditions: 786-0, 48 h, read-out: Activity
[27] = system: HOP-92; test: Cytotoxicity against human HOP92 cells assessed as cell growth at 10^-7 M after 48 hrs by SRB assay; conditions: HOP-92, 48 h, read-out: Activity
[28] = system: SK-MEL-2; test: Cytotoxicity against human SK-MEL-2 cells assessed as cell growth at 10^-6 M after 48 hrs by SRB assay; conditions: SK-MEL-2, 48 h, read-out: Activity
[29] = Cytotoxicity against human UO31 cells assessed as cell growth at 10^-7 M after 48 hrs by SRB assay; conditions: UO-31, 48 h, read-out: Activity
[30] = system: SW-620; test: Cytotoxicity against human SW620 cells assessed as cell growth at 10^-6 M after 48 hrs by SRB assay; conditions: SW-620, 48 h, read-out: Activity
[31] = system: T47D; test: Cytotoxicity against human T47D cells assessed as cell growth at 10^-6 M after 48 hrs by SRB assay; conditions: read-out: Activity
[32] = system: BT-549; test: Cytotoxicity against human BT549 cells assessed as cell growth at 10^-8 M after 48 hrs by SRB assay; conditions: BT-549, 48 h, read-out: Activity
[33] = system: SNB-19; test: Cytotoxicity against human SNB19 cells assessed as cell growth at 10^-8 M after 48 hrs by SRB assay; conditions: SNB-19, 48 h, read-out: Activity
[34] = Cytotoxicity against human UO31 cells after 48 hrs by SRB assay; conditions: UO-31, 48 h
[35] = system: MOLT-4; test: Cytotoxicity against human MOLT4 cells assessed as cell growth at 10^-8 M after 48 hrs by SRB assay; conditions: MOLT-4, 48 h, read-out: Activity
[36] = system: SK-MEL-28; test: Cytotoxicity against human SK-MEL-28 cells assessed as cell growth at 10^-4 M after 48 hrs by SRB assay; conditions: SK-MEL-28, 48 h, read-out: Activity
[37] = system: SK-MEL-2; test: Cytotoxicity against human SK-MEL-2 cells after 48 hrs by SRB assay; conditions: SK-MEL-2, 48 h
[38] = system: SF-295; test: Cytotoxicity against human SF295 cells assessed as cell growth at 10^-8 M after 48 hrs by SRB assay; conditions: SF-295, 48 h, read-out: Activity

C=CCn1c(C)nc2ccc(Nc3nc(Sc4ccc(N)cc4)nc4ccccc34)cc21
growth at 10 µM [1]: 98.8% | growth at 10 µM [2]: 65.5% | growth at 10 µM [3]: 103% | growth at 10 µM [4]: 101% | growth at 10 µM [5]: 61.1% | inhibition of growth at 10 µM [6]: 40% | growth at 10 µM [7]: 48.5% | growth at 10 µM [8]: 93.2% | growth at 10 µM [9]: 90.8% | growth at 10 µM [10]: 89.5% | growth at 10 µM [11]: 102% | growth at 10 µM [12]: 108% | growth at 10 µM [13]: 109% | growth at 10 µM [14]: 71.7% | growth at 10 µM [15]: 63.7% | growth at 10 µM [16]: 118% | growth at 10 µM [17]: 104% | growth at 10 µM [18]: 121% | growth at 10 µM [19]: 84.1% | growth at 10 µM [20]: 89.8% | growth at 10 µM [21]: 97.8% | growth at 10 µM [22]: 77.1% | growth at 10 µM [23]: 106%

C=CCn1c(C)nc2ccc(Nc3nc(Nc4ncccn4)nc4ccccc34)cc21
growth at 10 µM [1]: 94% | growth at 10 µM [2]: 84.8% | growth at 10 µM [3]: 106% | growth at 10 µM [4]: 82.8% | growth at 10 µM [5]: 70.5% | inhibition of growth at 10 µM [6]: 30% | growth at 10 µM [7]: 76.8% | growth at 10 µM [8]: 82.4% | growth at 10 µM [9]: 121% | growth at 10 µM [10]: 98.1% | growth at 10 µM [11]: 84.1% | growth at 10 µM [12]: 103% | growth at 10 µM [13]: 115% | growth at 10 µM [14]: 55.8% | growth at 10 µM [15]: 94.3% | growth at 10 µM [16]: 114% | growth at 10 µM [17]: 97.8% | growth at 10 µM [18]: 102% | growth at 10 µM [19]: 92.9% | growth at 10 µM [20]: 90.3% | growth at 10 µM [21]: 103% | growth at 10 µM [22]: 86.9% | growth at 10 µM [23]: 99.3%

C=CCn1c(C)nc2ccc(Nc3nc(Nc4ccc(F)cc4)nc4ccccc34)cc21
growth at 10 µM [1]: 26% | growth at 10 µM [2]: 2% | growth at 100 µM [24]: -34% | growth at 0.01 µM [25]: 99% | growth at 10 µM [3]: 47% | growth at 100 µM [26]: -71% | growth at 0.1 µM [27]: 80% | growth at 1 µM [28]: 96% | growth at 10 µM [4]: 28% | growth at 0.1 µM [29]: 86% | growth at 10 µM [5]: -8% | growth at 1 µM [30]: 89% | growth at 10 µM [7]: 42% | growth at 1 µM [31]: 79% | growth at 10 µM [8]: -63% | growth at 10 µM [9]: -27% | growth at 0.01 µM [32]: 88% | growth at 10 µM [10]: 8% | growth at 10 µM [11]: 39% | growth at 0.01 µM [33]: 95% | growth at 10 µM [12]: 64% | growth at 10 µM [13]: 8% | GI50 [34]: 4.53 µM | LC50 (concentration causing 50% net cell kill) [34]: 52.8 µM | TGI [34]: 19.3 µM | growth at 10 µM [14]: -47% | growth at 10 µM [15]: 4% | growth at 10 µM [16]: 59% | growth at 10 µM [17]: 11% | growth at 0.01 µM [35]: 98% | growth at 10 µM [18]: -91% | growth at 10 µM [19]: -100% | growth at 100 µM [36]: -50% | growth at 10 µM [20]: 26% | GI50 [37]: 3.16 µM | LC50 [37]: 53.3 µM | TGI [37]: 11.4 µM | growth at 10 µM [21]: 20% | growth at 10 µM [22]: 31.4% | growth at 0.01 µM [38]: 84% | growth at 10 µM [23]: 30%

From ChEMBL document CHEMBL3112450, “Synthesis and in vitro antitumor evaluation of primary amine substituted quinazoline linked benzimidazole” (Bioorg Med Chem Lett, 2014)
